This is an account of results in PubChem BioAssay AID1259411 (Chemical Carcinogenesis Research Information System (CCRIS), 2018).

The test system of this data set is rodent carcinogenicity bioassays, tumor incidence. Nature of the data set: CCRIS carcinogenicity studies. The text has this:
The CCRIS database contains chemical records with carcinogenicity, mutagenicity, tumor promotion, and tumor inhibition test results. It was developed by the National Cancer Institute (NCI). Data are derived from studies cited in primary journals, current awareness tools, NCI reports, and other sources. Test results have been reviewed by experts in carcinogenesis and mutagenesis.
CCRIS provides historical information from the years 1985 - 2011. It is no longer updated.
This is an archive assay for CCRIS carcinogenicity studies.

Calls of active or inactive are those of the source. The rule behind the calls is not given here.

For `O=C1NC(=O)C(c2ccccc2)(c2ccccc2)N1`, the carcinogen call (Species: MOUSE, Route: INTRAPERITONEAL, ORAL, Tumor Site: Type of Lesion: HEMATOPOIETIC SYSTEM (LEUKEMIA), LYMPHATIC SYSTEM: LYMPHOMA) was “active; positive”; the carcinogen call (Species: MOUSE, Strain/Sex: B6C3F1/FEMALE, Route: IN UTERO, ORAL, Dose: 0, 21 PPM IN DIET FED TO MOTHERS 1 WK BEFORE BREEDING, THROUGH BREEDING, GESTATION AND LACTATION, THEN DIETS WITH 60 PPM) was “inactive; negative”; the carcinogen call (Species: MOUSE, Strain/Sex: B6C3F1/FEMALE, Route: IN UTERO, ORAL, Dose: 0, 70 PPM IN DIET FED TO MOTHERS 1 WK BEFORE BREEDING, THROUGH BREEDING, GESTATION AND LACTATION, THEN DIETS WITH 200 PP) is “inactive; negative”; the carcinogen call (Species: MOUSE, Strain/Sex: B6C3F1/FEMALE, Route: IN UTERO, ORAL, Dose: 0, 210 PPM IN DIET FED TO MOTHERS 1 WK BEFORE BREEDING, THROUGH BREEDING, GESTATION AND LACTATION, THEN DIETS WITH 0, 20, Tumor Site: Type of Lesion: LIVER: HEPATOCELLULAR ADENOMA, HEPATOCELLULAR CARCINOMA) is “active; positive”; the carcinogen call (Species: MOUSE, Strain/Sex: B6C3F1/FEMALE, Route: ORAL, Dose: 0, 200, 600 PPM IN DIET FOR 2 YR (STUDY DURATION: 2 YR), Dose: 0, 200, 600 PPM IN DIET FOR 2 YR (STUDY DURATION: 2 YR), Tumor Site: Type of Lesion: LIVER: HEPATOCELLULAR ADENOMA, HEPATOCELLULAR CARCINOMA) was “active; positive”; the carcinogen call (Species: MOUSE, Strain/Sex: B6C3F1/MALE, Route: IN UTERO, ORAL, Dose: 0, 21 PPM IN DIET FED TO MOTHERS 1 WK BEFORE BREEDING, THROUGH BREEDING, GESTATION AND LACTATION, THEN DIETS WITH 30 PPM) was “inactive; negative”. For the same molecule, the carcinogen call is “inactive; negative” (Species: MOUSE, Strain/Sex: B6C3F1/MALE, Route: IN UTERO, ORAL, Dose: 0, 70 PPM IN DIET FED TO MOTHERS 1 WK BEFORE BREEDING, THROUGH BREEDING, GESTATION AND LACTATION, THEN DIETS WITH 100 PP); “inactive; negative” (Species: MOUSE, Strain/Sex: B6C3F1/MALE, Route: IN UTERO, ORAL, Dose: 0, 210 PPM IN DIET FED TO MOTHERS 1 WK BEFORE BREEDING, THROUGH BREEDING, GESTATION AND LACTATION, THEN DIETS WITH 0, 10); “inactive; negative” (Species: MOUSE, Strain/Sex: B6C3F1/MALE, Route: ORAL, Dose: 0, 100, 300 PPM IN DIET FOR 2 YR (STUDY DURATION: 2 YR), Dose: 0, 100, 300 PPM IN DIET FOR 2 YR (STUDY DURATION: 2 YR)); “inactive; negative” (Species: RAT, Strain/Sex: F344/DUCRJ/FEMALE, Route: ORAL, Dose: 0, 0.025, 0.05% IN BASAL DIET FOR 2 YR (STUDY DURATION: 112 WK), Dose: 0, 0.025, 0.05% IN BASAL DIET FOR 2 YR (STUDY DURATION: 112 WK)); “inactive; negative” (Species: RAT, Strain/Sex: F344/DUCRJ/MALE, Route: ORAL, Dose: 0, 0.025, 0.05% IN BASAL DIET FOR 2 YR (STUDY DURATION: 112 WK), Dose: 0, 0.025, 0.05% IN BASAL DIET FOR 2 YR (STUDY DURATION: 112 WK)); “inactive; negative” (Species: RAT, Strain/Sex: F344/FEMALE, Route: IN UTERO, ORAL, Dose: 0, 63 PPM IN DIET FED TO MOTHERS 1 WK BEFORE BREEDING, THROUGH BREEDING, GESTATION AND LACTATION, THEN DIETS WITH 240 PP). The carcinogen call is “inactive; negative” (Species: RAT, Strain/Sex: F344/FEMALE, Route: IN UTERO, ORAL, Dose: 0, 210 PPM IN DIET FED TO MOTHERS 1 WK BEFORE BREEDING, THROUGH BREEDING, GESTATION AND LACTATION, THEN DIETS WITH 800 P); “inactive; negative” (Species: RAT, Strain/Sex: F344/FEMALE, Route: IN UTERO, ORAL, Dose: 0, 630 PPM IN DIET FED TO MOTHERS 1 WK BEFORE BREEDING, THROUGH BREEDING, GESTATION AND LACTATION, THEN DIETS WITH 0, 80); “inactive; negative” (Species: RAT, Strain/Sex: F344/FEMALE, Route: ORAL, Dose: 0, 800, 2400 PPM IN DIET FOR 2 YR (STUDY DURATION: 2 YR), Dose: 0, 800, 2400 PPM IN DIET FOR 2 YR (STUDY DURATION: 2 YR)); “inactive; negative” (Species: RAT, Strain/Sex: F344/MALE, Route: IN UTERO, ORAL, Dose: 0, 63 PPM IN DIET FED TO MOTHERS 1 WK BEFORE BREEDING, THROUGH BREEDING, GESTATION AND LACTATION, THEN DIETS WITH 240 PP); “inactive; negative” (Species: RAT, Strain/Sex: F344/MALE, Route: IN UTERO, ORAL, Dose: 0, 210 PPM IN DIET FED TO MOTHERS 1 WK BEFORE BREEDING, THROUGH BREEDING, GESTATION AND LACTATION, THEN DIETS WITH 800 P); “inactive; negative” (Species: RAT, Strain/Sex: F344/MALE, Route: IN UTERO, ORAL, Dose: 0, 630 PPM IN DIET FED TO MOTHERS 1 WK BEFORE BREEDING, THROUGH BREEDING, GESTATION AND LACTATION, THEN DIETS WITH 0, 80). Under “Species: RAT, Strain/Sex: F344/MALE, Route: ORAL, Dose: 0, 800, 2400 PPM IN DIET FOR 2 YR (STUDY DURATION: 2 YR), Dose: 0, 800, 2400 PPM IN DIET FOR 2 YR (STUDY DURATION: 2 YR), Tumor Site: Type of Lesion: LIVER: HEPATOCELLULAR ADENOMA OR CARCINOMA”, the carcinogen call is on record as “equivocal”.

Turning to `CN(C)P(=O)(N(C)C)N(C)C`, the carcinogen call by setting is: (Species: RAT, Route: INHALATION, Tumor Site: Type of Lesion: NASAL CAVITY) “active; positive”; (Species: RAT, Strain/Sex: STRAIN-CD/MALE,FEMALE, Route: INHALATION, Dose: 0, 10, 50, 100, 400, 4000 PPB FOR 6-24 MO (STUDY DURATION: 2 YR), Dose: 0, 10, 50, 100, 400, 4000 PPB FOR 6-24 MO (STUDY DURATION: 2 YR), Tumor Site: Type of Lesion: NASAL CAVITY: EPIDERMOID CARCINOMA) “active; positive”; (Species: RAT, Strain/Sex: STRAIN-CD/MALE,FEMALE, Route: INHALATION, Dose: 0, 10, 50, 100, 400, 4000 PPB FOR 6-24 MO, STUDY DURATION: 24-25 MO, Dose: 0, 10, 50, 100, 400, 4000 PPB FOR 6-24 MO, STUDY DURATION: 24-25 MO, Tumor Site: Type of Lesion: NASAL CAVITY: SQUAMOUS CELL PAPILLOMA, EPIDERMOID CARCINOMA, NASAL CAVITY (ADENOID): SQUAMOUS CELL CARCINOMA) “active; positive”.

With `c1ccc2c(c1)ccc1cc3ccc4c(c3nc12)[C@@H]1O[C@@H]1CC4`, the carcinogen call is “inactive; negative” (Species: MOUSE, Strain/Sex: CD-1/FEMALE, Route: INTRAPERITONEAL, Dose: 0, 28 NMOL (TOTAL DOSE) ADMINISTERED AS 1/7 OF DOSE WITHIN 24 HR AFTER BIRTH, 2/7 OF DOSE AT 8 D OLD, 4/7 OF DOSE AT 15) and “inactive; negative” (Species: MOUSE, Strain/Sex: CD-1/MALE, Route: INTRAPERITONEAL, Dose: 0, 28 NMOL (TOTAL DOSE) ADMINISTERED AS 1/7 OF DOSE WITHIN 24 HR AFTER BIRTH, 2/7 OF DOSE AT 8 D OLD, 4/7 OF DOSE AT 15).

For `Cc1cc(-c2ccc(N/N=C3/C(=O)c4c(N)cc(S(=O)(=O)O)cc4C=C3S(=O)(=O)O)c(C)c2)ccc1N/N=C1/C(=O)c2c(N)cc(S(=O)(=O)O)cc2C=C1S(=O)(=O)O`, for the setting “Species: RAT, Route: INTRAPERITONEAL, SUBCUTANEOUS, Tumor Site: Type of Lesion: LIVER, INJECTION SITE”, the carcinogen call was “active; positive”.

`CCCCN(N=O)C(CCC)OC(C)=O` (configuration not stated): the carcinogen call is, setting by setting: (Species: RAT, Strain/Sex: F344/FEMALE, Route: SUBCUTANEOUS, Dose: 38 UMOL/KG IN OLIVE OIL 1/WK FOR 10 WK, Tumor Site: Type of Lesion: INJECTION SITE: MALIGNANT FIBROUS HISTIOCYTOMA) “active; positive”; (Species: RAT, Strain/Sex: F344/MALE, Route: SUBCUTANEOUS, Dose: 38 UMOL/KG IN OLIVE OIL 1/WK FOR 10 WK, Tumor Site: Type of Lesion: INJECTION SITE: MALIGNANT FIBROUS HISTIOCYTOMA, LUNG: ADENOMA) “active; positive”.
